One block for each molecule: values may come before it.
Tests used:
[1] = biological target: T1, recombinant rat L-type calcium channel (LTCC) subunits (α1c, α2δ, and β1) (Rattus norvegicus, UniProt P22002); assay: FLIPR calcium mobilization assay for L-type calcium channel; format: cell-based; conditions: calcium mobilization in vitro assay; HEK293 cells stably expressing rat LTCC subunits, 90 mM KCl
T1 construct: expressed in transfected cells; α1c in pcDNA6.2DEST, β1 in pcDNA3.2DEST, α2δ in pcDNA3.1-Zeo
T1 sequence (P22002 whole entry): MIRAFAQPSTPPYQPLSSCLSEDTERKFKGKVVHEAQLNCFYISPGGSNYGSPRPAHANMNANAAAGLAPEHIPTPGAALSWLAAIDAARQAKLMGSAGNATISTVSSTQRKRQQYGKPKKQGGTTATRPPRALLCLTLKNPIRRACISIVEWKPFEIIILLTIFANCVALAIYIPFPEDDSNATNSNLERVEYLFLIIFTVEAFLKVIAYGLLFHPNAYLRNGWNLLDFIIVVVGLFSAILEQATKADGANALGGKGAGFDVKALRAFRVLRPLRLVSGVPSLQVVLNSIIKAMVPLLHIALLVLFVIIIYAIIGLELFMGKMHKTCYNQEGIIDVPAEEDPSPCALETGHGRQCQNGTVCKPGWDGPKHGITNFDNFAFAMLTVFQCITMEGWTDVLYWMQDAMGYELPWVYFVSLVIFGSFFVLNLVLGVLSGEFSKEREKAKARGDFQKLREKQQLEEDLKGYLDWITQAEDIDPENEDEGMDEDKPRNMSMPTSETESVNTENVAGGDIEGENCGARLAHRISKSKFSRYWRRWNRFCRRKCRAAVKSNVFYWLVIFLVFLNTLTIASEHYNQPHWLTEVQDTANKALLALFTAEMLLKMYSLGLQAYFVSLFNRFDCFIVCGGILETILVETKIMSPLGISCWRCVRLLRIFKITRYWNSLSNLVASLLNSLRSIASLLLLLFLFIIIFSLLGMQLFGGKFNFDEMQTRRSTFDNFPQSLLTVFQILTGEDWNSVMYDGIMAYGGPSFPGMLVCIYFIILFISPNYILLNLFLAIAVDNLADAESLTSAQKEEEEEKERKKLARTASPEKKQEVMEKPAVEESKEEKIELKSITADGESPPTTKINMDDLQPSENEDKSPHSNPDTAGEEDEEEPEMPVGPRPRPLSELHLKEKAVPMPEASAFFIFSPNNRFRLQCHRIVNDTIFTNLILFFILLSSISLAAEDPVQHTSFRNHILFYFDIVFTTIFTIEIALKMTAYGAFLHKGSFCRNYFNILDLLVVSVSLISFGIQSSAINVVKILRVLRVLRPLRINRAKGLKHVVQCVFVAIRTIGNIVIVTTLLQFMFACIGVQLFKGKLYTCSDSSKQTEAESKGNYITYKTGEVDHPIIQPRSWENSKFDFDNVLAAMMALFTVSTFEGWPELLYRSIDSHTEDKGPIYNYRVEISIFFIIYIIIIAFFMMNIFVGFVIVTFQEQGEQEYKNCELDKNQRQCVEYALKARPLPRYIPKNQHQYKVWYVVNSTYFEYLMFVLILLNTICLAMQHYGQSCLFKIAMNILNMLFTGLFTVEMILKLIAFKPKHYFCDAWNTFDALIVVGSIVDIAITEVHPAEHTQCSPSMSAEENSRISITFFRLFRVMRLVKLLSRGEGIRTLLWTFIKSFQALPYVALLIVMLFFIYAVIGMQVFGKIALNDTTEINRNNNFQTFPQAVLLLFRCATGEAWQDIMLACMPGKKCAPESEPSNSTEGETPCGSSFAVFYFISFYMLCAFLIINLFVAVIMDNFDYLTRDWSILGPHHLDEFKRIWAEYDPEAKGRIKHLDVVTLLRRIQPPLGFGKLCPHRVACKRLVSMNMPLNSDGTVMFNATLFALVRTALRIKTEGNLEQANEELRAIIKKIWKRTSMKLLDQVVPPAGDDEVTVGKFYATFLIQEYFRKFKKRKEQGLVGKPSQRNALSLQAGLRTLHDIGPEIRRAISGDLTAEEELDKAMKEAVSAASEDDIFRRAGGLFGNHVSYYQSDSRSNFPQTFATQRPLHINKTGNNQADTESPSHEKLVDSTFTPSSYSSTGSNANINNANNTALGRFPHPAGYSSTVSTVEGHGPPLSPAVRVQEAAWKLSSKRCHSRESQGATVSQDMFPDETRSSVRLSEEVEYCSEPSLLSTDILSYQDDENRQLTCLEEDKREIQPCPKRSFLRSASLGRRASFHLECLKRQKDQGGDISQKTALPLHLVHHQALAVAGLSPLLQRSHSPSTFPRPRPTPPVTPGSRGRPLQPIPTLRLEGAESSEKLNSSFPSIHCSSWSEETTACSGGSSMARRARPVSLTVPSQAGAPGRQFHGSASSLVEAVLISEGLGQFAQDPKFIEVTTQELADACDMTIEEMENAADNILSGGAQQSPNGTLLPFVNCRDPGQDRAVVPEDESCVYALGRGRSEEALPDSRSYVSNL
T1 sequence (P54290 25-944 partner): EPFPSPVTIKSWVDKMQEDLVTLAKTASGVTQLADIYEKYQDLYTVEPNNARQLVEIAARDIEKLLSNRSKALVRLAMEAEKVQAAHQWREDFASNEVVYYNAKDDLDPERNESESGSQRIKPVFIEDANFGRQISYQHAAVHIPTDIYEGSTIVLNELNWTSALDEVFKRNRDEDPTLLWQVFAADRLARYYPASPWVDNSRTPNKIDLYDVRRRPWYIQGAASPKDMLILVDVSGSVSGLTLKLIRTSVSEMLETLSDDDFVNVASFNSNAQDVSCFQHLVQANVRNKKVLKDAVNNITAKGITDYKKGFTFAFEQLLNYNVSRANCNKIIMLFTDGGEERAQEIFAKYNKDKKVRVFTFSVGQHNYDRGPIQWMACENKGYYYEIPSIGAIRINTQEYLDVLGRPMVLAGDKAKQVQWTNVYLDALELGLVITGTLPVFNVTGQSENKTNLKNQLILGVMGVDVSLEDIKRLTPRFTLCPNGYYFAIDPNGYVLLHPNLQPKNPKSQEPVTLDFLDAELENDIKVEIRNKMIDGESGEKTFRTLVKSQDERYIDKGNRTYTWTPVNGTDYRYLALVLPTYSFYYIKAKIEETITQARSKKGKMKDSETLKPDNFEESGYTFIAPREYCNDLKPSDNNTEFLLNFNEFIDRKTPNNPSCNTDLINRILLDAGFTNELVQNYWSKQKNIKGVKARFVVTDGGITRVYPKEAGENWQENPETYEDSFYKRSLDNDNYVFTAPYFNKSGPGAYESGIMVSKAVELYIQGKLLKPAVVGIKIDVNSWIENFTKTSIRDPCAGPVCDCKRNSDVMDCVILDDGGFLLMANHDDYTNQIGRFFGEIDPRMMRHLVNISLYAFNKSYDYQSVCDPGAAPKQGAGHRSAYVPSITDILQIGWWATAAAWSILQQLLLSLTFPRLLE
T1 sequence (P54290 945-1091 partner): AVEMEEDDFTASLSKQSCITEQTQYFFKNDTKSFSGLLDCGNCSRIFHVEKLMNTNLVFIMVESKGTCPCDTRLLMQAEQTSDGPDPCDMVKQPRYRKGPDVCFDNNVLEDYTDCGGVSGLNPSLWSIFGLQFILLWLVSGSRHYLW
T1 sequence (P54283 whole entry partner): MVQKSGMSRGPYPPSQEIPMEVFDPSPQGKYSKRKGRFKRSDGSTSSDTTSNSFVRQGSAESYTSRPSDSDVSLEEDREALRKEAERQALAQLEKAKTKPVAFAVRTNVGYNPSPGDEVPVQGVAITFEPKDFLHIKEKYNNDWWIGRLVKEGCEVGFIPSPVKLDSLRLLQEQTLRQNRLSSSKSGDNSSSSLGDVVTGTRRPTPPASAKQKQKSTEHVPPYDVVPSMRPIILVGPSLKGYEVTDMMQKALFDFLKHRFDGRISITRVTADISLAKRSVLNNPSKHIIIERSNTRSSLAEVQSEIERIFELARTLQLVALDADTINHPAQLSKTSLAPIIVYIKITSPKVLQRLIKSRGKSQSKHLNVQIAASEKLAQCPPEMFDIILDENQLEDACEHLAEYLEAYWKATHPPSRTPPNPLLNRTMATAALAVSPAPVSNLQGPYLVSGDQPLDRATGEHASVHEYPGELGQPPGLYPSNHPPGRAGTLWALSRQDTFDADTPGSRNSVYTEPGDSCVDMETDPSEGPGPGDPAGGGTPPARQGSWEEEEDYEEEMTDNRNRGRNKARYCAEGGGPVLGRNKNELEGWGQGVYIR
Method: Recombinant human embryonal kidney cells (HEK293, ATCC) stably transfected with either N-type calcium channel (NTCC) subunits (α1b (SEQ ID NOs: 13 to 15), α2δ (SEQ ID Nos: 16, 17), and β3 (SEQ ID NOs:18 to 20)) or L-type calcium channel (LTCC) subunits (α1c (SEQ ID NOs:21, 22), α2δ, and β1 (SEQ ID NOs:23 to 25)) were routinely cultured in growth medium consisting of Dulbecco's Modified Eagles Medium containing 10% FBS, 100 U/mL penicillin, 100 μg/mL streptomycin, 4 mM L-glutamine, 500 μg/mL geneticin (G418), 20 μg/mL Blasticidin S (InVivogen, San Diego, Calif.) and 500 μg/mL zeocin (InVivogen).
FLIPR Calcium Mobilization Assay for L-type Calcium Channel. One day prior to performing this assay, HEK293 cells stably expressing recombinant rat L-type calcium channel (LTCC) subunits (α1c, α2δ, and β1) were trypsinized, then seeded on poly-D-lysine-coated 96-well clear-bottom black plates (Becton Dickinson, Franklin Lakes, N.J.) at 75,000 cells/well. On the day of the assay, the plates were washed with LTCC wash buffer (127 mM NaCl, 2 mM MgCl2, 700 μM NaH2PO4, 5 mM CaCl2, 5 mM NaHCO3, 8 mM HEPES, 10 mM glucose, pH 7.4), then loaded with 0.1 mL of LTCC wash buffer containing Fluo-4 (3 μM final concentration, Molecular Probes, Eugene, Oreg.). After 1 hour, the cells were washed with 0.1 mL LTCC wash buffer and resuspended in 0.05 mL LTCC assay buffer (same composition as LTCC wash buffer). Plates were then transferred to a FLIPR^96 for assay. The FLIPR measured basal Fluo-4 fluorescence for 15 seconds, then added 0.05 mL of each compound tested diluted in LTCC assay buffer at final concentrations ranging from about 846 pM to about […]. Fluo-4 fluorescence was then measured for 5 minutes. 0.1 mL KCl agonist dissolved in LTCC assay buffer was then added to the cells to produce a final concentration of 90 mM KCl, and fluorescence was measured for another 45 seconds. Data were collected over the entire time course and analyzed using Excel, Graph Pad Prism, or an in-house regression analysis software.
L-type Recombinant Cell Line Development. L-type calcium channel expressing HEK-293 cells were created in two stages. Stage 1 was created as follows. The rat α1c, and β1 cDNA expression constructs (2.5 μg each) were co-transfected into human embryonic kidney (HEK-293) cells by Lipofectamine Plus reagent (Invitrogen), as per manufacturer's instructions. 24 hours later, cells were split in limiting dilution into multiple 96-well plates in selection media containing 20 μg/mL blasticidin and 500 μg/mL geneticin, and incubated for 3 weeks at 37° C., 5% CO2, 95% humidity. Plates containing ≦1 clone per well were cultured until wells positive for single clones were confluent. Individual clones were then arrayed into columns of a destination 96-well plate, and partly split into 6-well plates for culture maintenance. Array plates were washed once with LTCC wash (or assay) buffer and cells loaded for 1 hour with 0.1 mL of LTCC buffer containing Fluo-4 (3 μM final concentration, Molecular Probes). Then they were washed twice with 0.1 mL of LTCC buffer, and replaced with 0.1 mL LTCC buffer. Plates were then transferred to a FLIPR^96 for assay. The FLIPR measured basal Fluo-4 fluorescence for 315 seconds, then added 0.1 mL KCl agonist dissolved in LTCC buffer and measured fluorescence for another 45 seconds. Final KCl concentration was 90 mM. Data were collected over the entire time course and analyzed using Excel, Graph Pad Prism, or Activity Base software. The clone with the greatest signal-to-noise ratio, best stability of response with passage number, and best adhesion to PDL precoated plates (Becton Dickinson) was expanded, characterized and used for stage 2 cell line development.
Stage 2 of L-type cell line development was carried out as follows. The rat α2δ cDNA expression construct (5 μg each) was transfected into the stage 1 L-type clonal cell line by Lipofectamine Plus reagent (Invitrogen), as per manufacturer's instructions. […]

[2] = biological target: T2, N-type calcium channel (NTCC) (Homo sapiens, UniProt Q00975); assay: FLIPR calcium mobilization assay for N-type calcium channel; format: cell-based; conditions: calcium mobilization in vitro assay; differentiated IMR32 cells, 5 μM nitrendipine, 90 mM KCl
T2 construct: endogenous in cells; host or cells: IMR32 cells (ATCC), differentiated with dibutyryl cAMP and bromodeoxyuridine
Method: Cell maintenance and differentiation. Unless noted otherwise, cell culture reagents were purchased from Mediatech of Herndon, Md. IMR32 cells (American Type Culture Collection, ATCC, Manassas, Va.) were routinely cultured in growth medium consisting of minimum essential medium containing 10% fetal bovine serum (FBS, Hyclone, Logan, Utah), 100 U/mL penicillin, 100 μg/mL streptomycin, 2 mM L-glutamine, 1 mM sodium pyruvate, and 1×MEM non-essential amino acids. 80-90% confluent flasks of cells were differentiated using the following differentiation medium: Growth medium plus 1 mM dibutyryl cyclic AMP (Sigma, St. Louis, Mo.), and 2.5 μM bromodeoxyuridine (Sigma). Cells were differentiated for 8 days by replacing differentiation medium every 2-3 days.
FLIPR Calcium Mobilization Assay for N-type Calcium Channel. One day prior to performing this assay, differentiated IMR32 cells were treated with 1× CellStripper, and seeded on poly-D-lysine-coated 96-well clear-bottom black plates (Becton Dickinson, Franklin Lakes, N.J.) at 200,000 cells/well. On the day of the assay, the cell plates were washed with IMR32 buffer (127 mM NaCl, 1 mM KCl, 2 mM MgCl2, 700 μM NaH2PO4, 5 mM CaCl2, 5 mM NaHCO3, 8 mM HEPES, 10 mM glucose, pH 7.4), then pre-stimulated with KCl and loaded as follows: 0.05 mL of IMR32 buffer, 0.05 mL of each compound tested diluted in IMR32 buffer containing 20 μM nitrendipine (Sigma), and 0.1 mL KCl dissolved in IMR32 buffer, plus Fluo-4 were added (3 μM final concentration, Molecular Probes, Eugene, Oreg.). Final test compound concentrations ranged from about 846 pM to about 17 μM, final nitrendipine concentration was 5 μM, and final KCl concentration was 90 mM. After 1 hour, the cells were washed twice with 0.05 mL of each compound tested in nitrendipine-containing IMR32 buffer (no KCl or Fluo-4), and then replaced with 0.1 mL of each compound tested in nitrendipine-containing IMR32 buffer. Plates were then transferred to a Fluorimetric Imaging Plate Reader (FLIPR^96, Molecular Devices, Inc., Sunnyvale, Calif.) for assay. The FLIPR measured basal Fluo-4 fluorescence for 315 seconds (i.e., 5 minutes and 15 seconds), then added 0.1 mL KCl agonist dissolved in IMR32 buffer and measured fluorescence for another 45 seconds. Final test compound concentrations on the cells after FLIPR read ranged from about 846 pM to about 17 μM, final nitrendipine concentration was 5 μM, and final KCl concentration was 90 mM. Data were collected over the entire time course and analyzed using Excel, Graph Pad Prism (version 3.02, Graph Pad, San Diego, Calif.), or an in-house non-linear regression analysis software.

SMILES: CC(CC(=O)NC(C)(C)C)N1CCC(N(C(C)C)S(=O)(=O)c2cccc(C(F)(F)F)c2)CC1 (stereo not drawn) [Compound 25, 3-{4-[Isopropyl-(3-trifluoromethyl-benzenesulfonyl)amino]piperidin-1-yl}-N-tert-butyl-butyramide]
IC50 [1]: 8.45 µM
IC50 [2]: 0.24 µM

SMILES: CC(C)N(C1CCN(CC(=O)Nc2ccc3c(c2)OC(F)(F)O3)CC1)S(=O)(=O)c1cccc(C(F)(F)F)c1 [Compound 31f, N-(2,2-Difluoro-benzo[1,3]dioxol-5-yl)-2-{4-[isopropyl-(3-trifluoromethyl-benzenesulfonyl)-amino]-piperidin-1-yl}-acetamide]
IC50 [1]: > 20 µM
IC50 [2]: 0.58 µM

SMILES: COC(=O)c1ccccc1N1CCC(N(C2CC2)S(=O)(=O)c2cccc(C(F)(F)F)c2)CC1 [Compound 10a, 2-{4-[Cyclopropyl-(3-trifluoromethyl-benzenesulfonyl)amino]piperidin-1-yl}benzoic acid methyl ester]
IC50 [1]: > 20 µM
IC50 [2]: 0.9 µM

SMILES: CCOC(=O)C(C)(C)N1CCC(N(C(C)C)S(=O)(=O)c2cccc(C(F)(F)F)c2)CC1 [Compound 8b, 2-{4-[Isopropyl-(3-trifluoromethyl-benzenesulfonyl)amino]piperidin-1-yl}-2-methylpropionic acid ethyl ester]
IC50 [1]: > 20 µM
IC50 [2]: 0.62 µM

Other lines, results leading:

IC50 [1]: 7.85 µM
IC50 [2]: 0.26 µM
SMILES: CC(C)N(C1CCN(CC(=O)NC2CCCCCC2)CC1)S(=O)(=O)c1cccc(C(F)(F)F)c1 [Compound 31c, N-Cycloheptyl-2-{4-[isopropyl-(3-trifluoromethyl-benzenesulfonyl)-amino]-piperidin-1-yl}-acetamide]

IC50 [1]: > 20 µM
IC50 [2]: 0.3 µM
SMILES: CC(C)N(C1CCN(CC(=O)N2CCCCCC2)CC1)S(=O)(=O)c1cccc(C(F)(F)F)c1 [Compound 31a, N-[1-(2-Azepan-1-yl-2-oxo-ethyl)-piperidin-4-yl]-N-isopropyl-3-trifluoromethyl-benzenesulfonamide]

From patent publication US8765736B2, “Benzenesulfonamide compounds and the use thereof” (Purdue Pharma L.P., priority 2007, dated 2014)
